The values below come from patent US5711020A (priority 1996, dated 1998).

Several values for one entry are separate records, joined by “and”; a condition that tells them apart may be missing. Identical values can stand only once. Like-named read-outs stand apart in the source and are kept apart here.

Assay in data set [1]: not given
The source holds these as a separate data set.

Data set [2] has as its system purified TNT-reducing agent.
Assay in data set [3]: not given
The source holds these as a separate data set.

For a further data set, the system named is TNT reducing enzyme. The class given is biochemical.
Another data set concerns nitrilase. It is filed as biochemical.

For `ClC(Br)C(Cl)Br` (stereo not drawn) [1,2-Dibromo-1,2-dichloroethane], the “Rate Constant k” value (pH 7.2) is 5.44E-03 min - 1 and 4.54E-03 min - 1.
For the compound `BrCCBr` [1,2-Dibromoethane], for the setting “pH 7.2”, the “Rate Constant k” value is 7.13E-04 min - 1. The compound further came in with a Half life (vechten pond sediment, pH 7.2) of 16.2 h.
For the setting “breukelveen sediment, pH 7.6”, `ClC(Cl)(Cl)Cl` [Carbontetrachloride] showed a Half life of 10.0 h. The “Rate Constant k” value (pH 7.6) turned out to be 1.16E-03 min - 1.
For the compound `ClC(Cl)(Cl)C(Cl)(Cl)Cl` [HCA, hexachloroethane], the Half life by setting is: (breukelveen sediment, pH 7.6) 0.5 h; (dommel sediment, 0.0732 µM, pH 7.5) 1.5 h; (loosdrechtse plassen sediment, 0.0732 µM, pH 7.7) 9.5 h; (vechten pond sediment, pH 7.2) 5.0 h. The “Rate Constant k” value runs as follows: (pH 7.2) 2.33E-03 min - 1; (pH 7.5) 7.62E-03 min - 1; (pH 7.6) 2.47E-02 min - 1; (pH 7.7) 1.22E-03 min - 1. The compound further registered a Half-life in the data set with purified dehalogenase (30 µM) of 3.33 h.
Regarding `Ic1ccccc1` [Iodobenzene], the “Rate Constant k” value (pH 7.2) was found to be 2.55E-05 min - 1. The Half life (vechten pond sediment, pH 7.2) was found to be 453.0 h.
`BrC(Br)=C(Br)Br` [PBE, tetrabromoethene] gave a Half-life in the data set with purified dehalogenase (30 µM) of 18.33 h.
Take `ClC(Cl)=C(Cl)Cl` [PCE, tetrachloroethene]: under “pH 7.2”, the “Rate Constant k” value came out at 4.05E-05 min - 1. Also, the Half life (vechten pond sediment, pH 7.2) turned out to be 285.5 h. For the same compound, the Half-life is 3.33 h in the data set with purified dehalogenase (60 µM) and 10 h in the data set with purified dehalogenase (100 µM).
For `ClC=C(Cl)Cl` [TCE, trichloroethene], in the data set on purified dehalogenase (60 µM), the Half-life came to 3.33 h.
As for `IC(I)=C(I)I` [Tetraiodoethene], the “Rate Constant k” value (pH 7.2) stood at 9.22E-02 min - 1. Moreover, the Half life (vechten pond sediment, pH 7.2) came out at 0.1 h.
For `O=[N+]([O-])c1ccccc1` [nitrobenzene], the “kcorr, calculated maximum rate assuming a 10% analytical method error” value in data set [1] (pH 2.5) is given as 0.25 ± 0.025 10^4 m^-1; in data set [1] (pH 3.85), 0.12 ± 0.012 10^4 m^-1. For the same compound, the kcorr in data set [1] (pH 5.3) is on record as 4.6 ± 0.24 10^4 m^-1; in data set [1] (pH 7), 4.2 ± 0.20 10^4 m^-1; in data set [1] (pH 7.75) it was 8.5 ± 0.77 10^4 m^-1; in data set [1] (pH 9.15), 9.3 ± 0.62 10^4 m^-1; in data set [1] (pH 10.55) it was 7.8 ± 1.2 10^4 m^-1. The “kobs, observed first-order disappearance rate constant and standard deviation” value is given as 4.0 ± 0.21 10^-4 m^-1 in data set [1] (pH 5.3); 3.8 ± 0.18 10^-4 m^-1 in data set [1] (pH 7); 7.7 ± 0.70 10^-4 m^-1 in data set [1] (pH 7.75); 8.6 ± 0.57 10^-4 m^-1 in data set [1] (pH 9.15); 6.6 ± 1.0 10^-4 m^-1 in data set [1] (pH 10.55). Moreover, the Half-life in data set [2] turned out to be 28 h. In addition, the t1/2 stood at 0.35 h in data set [3] (bar-h sediment), 2.37 h in data set [3] (beaver dam sediment), 2.37 h in data set [3] (hickory hill sediment) and 2 h in data set [3] (memorial park sediment).
On to chymotrypsin, for which the “effect on TNT-reducing activity” value with TNT reducing enzyme is given as “no inhibition”. Also, the “effect on activity of the nitrilase” value in the data set on nitrilase is on record as “inhibited”.
For trypsin, the “effect on TNT-reducing activity” value with TNT reducing enzyme is “no inhibition”. Further, in the data set with nitrilase, the “effect on activity of the nitrilase” value is given as “inhibited”.
